Literature values as cited in US20230257337A1, “METHOD FOR PRODUCING POLYGYLCEROL ESTERS OF POLYCARBOXYLIC ACIDS ESTERIFIED WITH OXOBUTANOL” (IOI Oleo GmbH, priority 2020, published 2023).

Settings: even if several grams are taken

SMILES: CC(O)CC(=O)O (stereo not shown) [3-hydroxybutyric acid]
- duration of ketosis: about three to four
